Assay results: patent US20230322822A1, “ARYL PHOSPHOROUS OXIDE COMPOUNDS AND USE THEREOF” (Chengdu Di'ao Jiuhong Pharmaceutical Factory, priority 2020, published 2023)
Like-named read-outs stand apart in the source and are kept apart here.

Key:
[1] = test system: BaF3 EML-4-ALK-L1196M cell line; assay: Cell anti-proliferation test 4 (CCK-8), BaF3 EML-4-ALK-L1196M; type: cell-based; settings: Ba/F3 EML4-ALK-L1196M, BaF3 EML-4-ALK-L1196M cells, CCK-8, 72 hours
Experimental: BaF3 EML-4-ALK-L1196M cell line, brand: KYinno, article number: KC-0102
Cell Counting Kit-8 (CCK-8), brand: Targetmol, article number: C0005
10 μL of the compound diluted in gradient was added to the cell plate to give final concentrations of the compounds as 500, 166.67, 55.56, 18.52, 6.17, 2.06, 0.69, 0.23 and 0.08 nM. • d.

[2] = Pharmacokinetic test in SD rats; type: in vivo; settings: male, Sprague-Dawley, rat, plasma, PO, 20 mg/kg
Experimental: Six SD rats were taken, which were all male, and about 8-9 weeks old, weighing about 430 g/rat, and fasting but allowed to drink water for 18 hours.
The rats were divided into two groups, wherein the rats in group 1 were dosed with compound 2 and the rats in group 2 were dosed with control compound 4, both orally and intragastrically in a dose of 20 mg/kg. A lavage fluid was prepared using 70 mM citric acid buffer (pH 3.0) at an administration volume of 5 mL/kg.
0.6 mL of blood (EDTA-2K anti-coagulated) was collected from rat orbits at 0.5, 1.5, 3, 4.5, 8, 12, 24, 36, 48 and 72 hours after the administration respectively. The plasma was separated and stored at −70° C., and the plasma samples were analyzed using liquid chromatography tandem mass spectrometry (LC-MS/MS). The plasma concentration-time data of the individual rates was analyzed using a non-compartmental model of DAS3.3.1 software and pharmacokinetic parameters of the test compounds were calculated.

- IC50 ([1]; first test, read-out: First test IC50): 0.0815 µM
- IC50 ([1]; second test, read-out: Second test IC50): 0.0746 µM
- AUC(0-t) [2]: 58500 ng·h/mL
- Cmax [2]: 1420 ng/mL
SMILES: CCc1cc(Nc2ncc(Br)c(Nc3ccc(C4CC4)cc3P(C)(C)=O)n2)c(OC)cc1N1CCC(N2CCN(C)CC2)CC1 [Control compound 4, reference compound]
